Test results: PMC8769378, “Underlining the Importance of Peripheral Protic Functional Groups to Enhance the Proton Exchange of Gd-Based MRI Contrast Agents” (Inorganic Chemistry, 2021)
Marks after values point to notes of the source that are not given here.

Columns and labels:
[1] = not fitted: fixed to the value determined for GdHPADO3A ref 7; cited from earlier work
[2] = Acid-assisted dissociation kinetics of Gd^III complexes followed by ^1H NMR relaxometry
Description: In order to investigate the kinetic inertness of the Gd^III complex, the dissociation reactions of GdL2 were followed by ^1H NMR relaxometry (21 MHz and 298 K) in the presence of large acid excess ([HCl] = 0.01–1.0 M) to guarantee the pseudo-first-order kinetic conditions.
The kinetic inertness of the GdL2 was characterized by the rates of the dissociation reactions taking place in 0.01–1.0 M HCl solution. The dissociation reactions of the GdL2 were followed by measuring the longitudinal relaxation time of H2O protons (T1) with a Stelar relaxometer connected to a Bruker WP80 NMR electromagnet adapted to variable-field measurements (15–80 MHz proton Larmor frequency). The temperature was controlled with a Stelar VTC-91 airflow heater equipped with a calibrated copper–constantan thermocouple (uncertainty of ±0.1 °C). Measures were carried out at 21 MHz and 25 °C. The longitudinal relaxation time (T1) was measured with the “inversion recovery” method (180° – τ – 90°) by using 16 different τ values with a typical 90° pulse width of 6.5 μs, 4 scans. The measurements were performed with a 1 mM solution of the GdL2 complex. The relaxivity values were given as r1 = 1/T1p + 1/T1w where T1p and T1w are the relaxation times of the bulk water protons in the presence and absence of GdL2. The pseudo-first-order rate constants (kd) were calculated by fitting the relaxation rate (r1 = 1/T1p) data to eq 4. […] 4 where rr and rv are the relaxivity values of the reactants and the product (Gd^3+: r1p = 12.85 (2) mM^–1 s^–1, 21 MHz, 25 °C) and rt is the measured relaxivity at reaction time t. The temperature was maintained at 25 °C, and the ionic strength of the solutions was kept constant at [H^+] ≤ 0.15 M, [HCl] + [NaCl] = 0.15 M. The calculation of the kinetic parameters was performed by the fitting of the absorbance–time and relaxation rate–time data pairs with the Micromath Scientist computer program (version 2.0, Salt Lake City, UT).
Kinetic inertness of GdL2
In order to investigate the kinetic inertness of GdL2, the dissociation reactions of GdL2 were followed
by 1H-NMR relaxometry in the presence of large acid excess ([HCl]= 0.01 – 1.0 M) to guarantee the
pseudo-first-order kinetic conditions. The R1obs values as a function of time for the dissociation
In the presence of HCl excess, the dissociation of GdL2 can be treated as a pseudo-first-order process
and the rate of the reaction can be expressed by Eq. (S7)
where kd is a pseudo-first-order rate constant, [GdL]t and [GdL]tot are the concentrations of the GdL
species at time t and the total concentration of the complex, respectively. The rates of the dissociation
reactions were determined at different concentrations of HCl ([HCl]=0.01 – 1.0 M).
The proton assisted dissociation
of GdL2 might occur by the equilibrium formation of a protonated *Gd(H2L2) intermediate (Eq.
(S8)), which dissociates spontaneously (Eq. (S9)).
Gd(HL2) + H Gd(H2L2) (S8)

[3] = Protonation constants of the ligands by pH potentiometry; format: physicochemical; details: I = 0.15 M NaCl, 298 K
Description: (§1) The metal complexes of biomedical interest must show a high in vivo stability, which includes high thermodynamic stability and kinetic inertness to allow targeting applications and to avoid possible toxic effects derived by metal ion and ligand release via transmetalation or transchelation reactions.[2],[3],[13] The protonation constants of L2 as well as the stability and the protonation constants of GdL2 and those of the most important endogenous divalent metal complexes (Ca^II-, Zn^II-, and Cu^II) were determined by pH potentiometry (Table 1 and Table S1). In the case of GdL1, we were interested in determining the dissociation constant of the hydroxyl group that was measured also by pH potentiometry (Table 1). Experimental details and the definitions and equations used for the evaluation of the equilibrium and kinetic data are summarized in the SI.
The chemicals used for the experiments were of the highest analytical grade. The concentrations of the CaCl2, ZnCl2, CuCl2, and GdCl3 solutions were determined by complexometric titration with standardized Na2H2EDTA and xylenol orange (ZnCl2, and GdCl3), murexid (CuCl2), and Patton and Reeder (CaCl2) as indicators. The concentration of the H3L1 and H4L2 was determined by pH potentiometric titration in the presence and absence of a large (40-fold) excess of CaCl2. The pH potentiometric titrations were performed with standardized 0.2 M NaOH.
For the pH measurements and titrations, the Metrohm 888 Titrando titration workstation Metrohm-6.0234.110 combined electrode was used. Equilibrium measurements were carried out at a constant ionic strength (0.15 M NaCl) in 6 mL samples at 25 °C. The solutions were stirred, and N2 was bubbled through them. The titrations were made in the pH range 1.7–12.0. KH-phthalate (pH = 4.005) and borax (pH = 9.177) buffers were used to calibrate the pH meter. For the calculation of [H^+] from the measured pH values, the method proposed by Irving et al. was used as follows.[34] A 0.01 M HCl solution was titrated with standardized NaOH solution at 0.15 M NaCl ionic strength. The differences (A) between the measured (pHread) and calculated (−log[H^+]) pH values were used to obtain the equilibrium H^+ concentration from the pH values measured in the titration experiments (A = 0.024). For the equilibrium calculations, the stoichiometric water ionic product (pKw) was also needed to calculate [OH^–] values under basic conditions. The VNaOH–pHread data pairs of the HCl–NaOH titration obtained in the pH range 10.5–12.0 were used to calculate the pKw value (pKw = 13.79).

[4] = Stability and protonation constants of Ca^II complexes by pH potentiometry; format: physicochemical
Description: as §1, with “Experimental details and the definitions and equations used for the evaluation of the equilibrium and kinetic data are summarized in the SI.” left out
The stability and protonation constants of Ca^2+, Zn^2+, and Cu^2+ complexes formed with the […] ligand were determined by pH potentiometric titration. […] The protonation constants of the GdL1 and GdL2 complexes were determined using pH potentiometry by titrating the preprepared complexes from pH = 3.0 to pH = 12 for GdL2 and from pH = 4.0 to pH = 12 for GdL1 with 0.2 M NaOH. The stability constants of GdL2 were determined by the “out-of-cell” technique because of the slow formation reaction. The pH range of the complexation equilibria and the time needed to reach the equilibria were determined by relaxometry for the formation of GdL2. […]

In the case of `O=C([O-])CN1CCN(CC(=O)[O-])CCN(CC(O)C(=O)O)CCN(CC(=O)[O-])CC1.[Gd+3]` (stereo not drawn) [GdL2], the τM [1] is given as 20 ^c ns, the “kd at pH = 7.4” value ([2]; calculated from acid-assisted dissociation only, pH = 7.4, 298 K, comparators from literature constants) is given as 9.01 × 10^–12 s^–1 and the “k1 (acid-catalyzed dissociation rate constant)” value ([2]; k1 = kGdH2L × K^HGd(HL), [HCl] = 0.01–1.0 M, 298 K) is given as “(2.3 ± 0.1) × 10^–4 M^–1 s^–1”. The “K^HGdL” value ([2]; protonation constant of GdHL from kinetic data, 298 K) was 0.5 ± 0.1 (GdHL) M^–1.

With `O=C(O)CN1CCN(CC(=O)O)CCN(C[C@@H](O)C(=O)O)CCN(CC(=O)O)CC1` [L2, (R)2,2′,2″-(10-(2-Carboxy-2-hydroxyethyl)-1,4,7,10-tetraazacyclododecane-1,4,7-triyl) Triacetic Acid] the “log K5^H” value ([3]; first line headed log K5^H) was 2.47 (4), the “log K1^H” value ([3]; ligand protonation constant) was 8.95 (3) and the “log K2^H” value ([3]; ligand protonation constant) was 8.95 (2). The “log K3^H” value ([3]; ligand protonation constant) was 4.22 (3), the “log K4^H” value ([3]; ligand protonation constant) was 3.74 (3) and the “log K5^H” value ([3]; second line headed log K5^H (sixth constant)) was 1.75 (4). For the same compound, the “CaHL (log K, protonation constant of the complex)” value ([4]; 0.15 M NaCl, 25 °C) was 5.20 (5) and the “CaL (log K, stability constant)” value ([4]; I = 0.15 M NaCl, 298 K) was 11.63 (1).
